Measured values reported in US20100222269A1, “IMPROVED DERIVATIVES OF AMYLIN” (priority 2007, published 2010).
Starred links: 1 amine or outer side, 2 acyl side, 3 side chain; linkers in the order of their positions; H or OH if unused. Positions of bridges follow the written chain, without caps; N, C: chain ends. Residues, ends and D or L forms follow the SMILES beside them. Groups on a side chain read outwards from the residue. *: point of attachment. X1 = O=C(CCCCCCCCCCCCCCCc1nnn[nH]1)NS(=O)(=O)CCCC(=O)*; C20 diacid = O=C(O)CCCCCCCCCCCCCCCCCCC(=O)*; C18 diacid = O=C(O)CCCCCCCCCCCCCCCCC(=O)*; γGlu = O=C(O)[C@H](CCC(=O)[*:2])N[*:1]; AEEA = NCCOCCOCC(=O)O

target: T1, Amylin 3(a) receptor (human calcitonin receptor (CTa) with RAMP-3) (Homo sapiens, UniProt O60896+P30988); assay: Amylin luciferase assay (CRE-luciferase reporter in BHK Amylin 3(a)//CRE-luc cells); format: cell-based; conditions: BHK570 cells with human calcitonin receptor (CTa), RAMP-3 and CRE-luciferase reporter; 4 hours incubation; read-out: Potency luciferase assay
T1 construct: expressed in transfected cells; host or cells: BHK570 (baby hamster kidney) cells, stably transfected, with CRE-luciferase reporter
Method in brief: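 BHK570 cells stably expressing human calcitonin receptor (CTa), RAMP-3 and a CRE-luciferase reporter, about 20.000 cells/well, were exposed to standard or sample for 4 h at 37° C in phenol-red-free DMEM with 10% FBS and 10 mM Hepes pH 7,4. Luminescence was read after 30 min with LucLite at room temperature.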

T1 sequence (O60896 24-148): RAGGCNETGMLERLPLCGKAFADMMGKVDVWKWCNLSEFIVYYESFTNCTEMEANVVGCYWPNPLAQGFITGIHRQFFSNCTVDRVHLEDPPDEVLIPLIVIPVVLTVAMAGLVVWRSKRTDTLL
T1 sequence (P30988 25-474): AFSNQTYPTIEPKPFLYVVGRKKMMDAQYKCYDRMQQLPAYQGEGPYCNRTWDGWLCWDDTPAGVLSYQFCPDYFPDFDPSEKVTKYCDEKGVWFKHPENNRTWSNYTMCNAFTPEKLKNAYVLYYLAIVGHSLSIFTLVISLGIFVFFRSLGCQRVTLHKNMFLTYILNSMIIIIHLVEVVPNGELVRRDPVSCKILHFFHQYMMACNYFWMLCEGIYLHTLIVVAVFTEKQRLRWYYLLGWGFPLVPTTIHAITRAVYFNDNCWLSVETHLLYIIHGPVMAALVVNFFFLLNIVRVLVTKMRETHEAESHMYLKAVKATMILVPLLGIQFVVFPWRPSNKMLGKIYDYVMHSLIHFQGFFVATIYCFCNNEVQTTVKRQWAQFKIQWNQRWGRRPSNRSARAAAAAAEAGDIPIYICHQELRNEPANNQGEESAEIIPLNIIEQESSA

| SMILES | EC50 [nM] |
| --- | --- |
| CC[C@H](C)[C@H](NC(=O)[C@@H]1CCCN1C(=O)CNC(=O)[C@H](Cc1ccccc1)NC(=O)[C@H](CC(N)=O)NC(=O)[C@H](CC(N)=O)NC(=O)[C@H](CO)NC(=O)[C@H](CO)NC(=O)[C@H](CCCNC(=N)N)NC(=O)[C@H](C)NC(=O)[C@H](CC(C)C)NC(=O)[C@H](Cc1ccccc1)NC(=O)[C@H](CC(N)=O)NC(=O)[C@H](C)NC(=O)[C@H](CC(C)C)NC(=O)[C@H](CCCNC(=N)N)NC(=O)[C@H](CCC(N)=O)NC(=O)[C@@H](NC(=O)[C@H](C)NC(=O)[C@@H]1CSSC[C@H](NC(=O)[C@@H](N)CCCCNC(=O)CC[C@H](NC(=O)CCCCCCCCCCCCCCCCC(=O)O)C(=O)O)C(=O)NCC(=O)N[C@@H]([C@@H](C)O)C(=O)N[C@@H](C)C(=O)N[C@@H]([C@@H](C)O)C(=O)N1)[C@@H](C)O)C(=O)N[C@@H](CC(C)C)C(=O)N[C@@H](CO)C(=O)N1CCC[C@H]1C(=O)N[C@H](C(=O)N[C@@H](CC(N)=O)C(=O)N[C@H](C(=O)NCC(=O)N[C@@H](CO)C(=O)N[C@@H](CC(N)=O)C(=O)N[C@H](C(=O)N[C@@H](Cc1ccc(O)cc1)C(N)=O)[C@@H](C)O)C(C)C)[C@@H](C)O [Example 23, N-epsilon1-[(S)-4-carboxy-4-(17-carboxyheptadecanoylamino)butyryl]-[Gly3,Ala17,Arg18,Ser28]-pramlintide (1-37)] (H-K([γGlu-C18 diacid])CGTATCATQRLANFLARSSNNFGPILSPTNVGSNTY-NH2; disulfide 2-7) | 0.07 |
| CC[C@H](C)[C@H](NC(=O)[C@@H]1CCCN1C(=O)CNC(=O)[C@H](Cc1ccccc1)NC(=O)[C@H](CC(N)=O)NC(=O)[C@H](CC(N)=O)NC(=O)[C@H](CO)NC(=O)[C@H](CO)NC(=O)[C@H](Cc1c[nH]cn1)NC(=O)[C@@H](NC(=O)[C@H](CC(C)C)NC(=O)[C@H](Cc1ccccc1)NC(=O)[C@H](CC(N)=O)NC(=O)[C@H](C)NC(=O)[C@H](CC(C)C)NC(=O)[C@H](CCCNC(=N)N)NC(=O)[C@H](CCC(N)=O)NC(=O)[C@@H](NC(=O)[C@H](C)NC(=O)[C@@H]1CSSC[C@H](NC(=O)[C@H](CCC(=O)O)NC(=O)[C@H](CCCNC(=N)N)NC(=O)[C@H](CCC(=O)O)NC(=O)[C@H](CCC(=O)O)NC(=O)CCCCCCCCCCCCCCCCCCC(=O)O)C(=O)N[C@@H](CC(N)=O)C(=O)N[C@@H]([C@@H](C)O)C(=O)N[C@@H](C)C(=O)N[C@@H]([C@@H](C)O)C(=O)N1)[C@@H](C)O)C(C)C)C(=O)N[C@@H](CC(C)C)C(=O)N1CCC[C@H]1C(=O)N1CCC[C@H]1C(=O)N[C@H](C(=O)N[C@@H](CC(N)=O)C(=O)N[C@H](C(=O)NCC(=O)N[C@@H](CO)C(=O)N[C@@H](CC(N)=O)C(=O)N[C@H](C(=O)N[C@@H](Cc1ccc(O)cc1)C(N)=O)[C@@H](C)O)C(C)C)[C@@H](C)O [Example 25, N-alpha-(19-carboxynonadecanoyl)-Glu-Glu-Arg-[Glu1]-pramlintide (1-37)] ({C20 diacid}-EERECNTATCATQRLANFLVHSSNNFGPILPPTNVGSNTY-NH2; disulfide 5-10; C-terminus assumed) | 0.08 |
| CC(C)C[C@H](NC(=O)[C@H](CC(N)=O)NC(=O)[C@H](CCC(N)=O)NC(=O)[C@H](CO)NC(=O)[C@H](CO)NC(=O)[C@H](CCCNC(=N)N)NC(=O)[C@@H](NC(=O)[C@H](CC(C)C)NC(=O)[C@H](Cc1ccccc1)NC(=O)[C@H](CC(N)=O)NC(=O)[C@H](C)NC(=O)[C@H](CC(C)C)NC(=O)[C@H](CCCNC(=N)N)NC(=O)[C@H](CCC(N)=O)NC(=O)[C@@H](NC(=O)[C@H](C)NC(=O)[C@@H]1CSSC[C@H](NC(=O)[C@@H](N)CCCCN)C(=O)N[C@@H](CCCCNC(=O)CC[C@H](NC(=O)CCCCCCCCCCCCCCCCC(=O)O)C(=O)O)C(=O)N[C@@H]([C@@H](C)O)C(=O)N[C@@H](C)C(=O)N[C@@H]([C@@H](C)O)C(=O)N1)[C@@H](C)O)C(C)C)C(=O)NCC(=O)N1CCC[C@H]1C(=O)N[C@H](C(=O)N[C@@H](CC(C)C)C(=O)N1CCC[C@H]1C(=O)N1CCC[C@H]1C(=O)N[C@H](C(=O)N[C@@H](CC(N)=O)C(=O)N[C@H](C(=O)NCC(=O)N[C@@H](CO)C(=O)N[C@@H](CC(N)=O)C(=O)N[C@H](C(=O)N[C@@H](Cc1ccc(O)cc1)C(N)=O)[C@@H](C)O)C(C)C)[C@@H](C)O)C(C)C [Example 28, N-epsilon3-[(S)-4-Carboxy-4-(17-carboxyheptadecanoylamino)butyryl]-[Lys3,Arg18,Gln21,Leu23,Val26]-pramlintide (1-37)] (H-KCK([γGlu-C18 diacid])TATCATQRLANFLVRSSQNLGPVLPPTNVGSNTY-NH2; disulfide 2-7) | 0.04 |

More lines, now with the values ahead:

| EC50 [nM] | SMILES |
| --- | --- |
| 0.3 | CC[C@H](C)[C@H](NC(=O)[C@H](CCCCNC(=O)COCCOCCNC(=O)COCCOCCNC(=O)CC[C@H](NC(=O)CC[C@H](NC(=O)CC[C@H](NC(=O)CC[C@H](NC(=O)CCCCCCCCCCCCCCCCC(=O)O)C(=O)O)C(=O)O)C(=O)O)C(=O)O)NC(=O)CNC(=O)[C@H](Cc1ccccc1)NC(=O)[C@H](CC(N)=O)NC(=O)[C@H](CC(N)=O)NC(=O)[C@H](CO)NC(=O)[C@H](CO)NC(=O)[C@H](Cc1c[nH]cn1)NC(=O)[C@@H](NC(=O)[C@H](CC(C)C)NC(=O)[C@H](Cc1ccccc1)NC(=O)[C@H](CC(N)=O)NC(=O)[C@H](C)NC(=O)[C@H](CC(C)C)NC(=O)[C@H](CCCNC(=N)N)NC(=O)[C@H](CCC(N)=O)NC(=O)[C@@H](NC(=O)[C@H](C)NC(=O)[C@@H]1CSSC[C@H](NC(=O)[C@@H](N)CCCCN)C(=O)N[C@@H](CC(N)=O)C(=O)N[C@@H]([C@@H](C)O)C(=O)N[C@@H](C)C(=O)N[C@@H]([C@@H](C)O)C(=O)N1)[C@@H](C)O)C(C)C)C(=O)N[C@@H](CC(C)C)C(=O)N1CCC[C@H]1C(=O)N1CCC[C@H]1C(=O)N[C@H](C(=O)N[C@@H](CC(N)=O)C(=O)N[C@H](C(=O)NCC(=O)N[C@@H](CO)C(=O)N[C@@H](CC(N)=O)C(=O)N[C@H](C(=O)N[C@@H](Cc1ccc(O)cc1)C(N)=O)[C@@H](C)O)C(C)C)[C@@H](C)O [Example 26, N-epsilon25-[2-(2-{2-[2-(2-{2-[(S)-4-carboxy-4-((S)-4-carboxy-4-{(S)-4-carboxy-4-[(S)-4-carboxy-4-(17-carboxyheptadecanoylamino)butyrylamino]butyrylamino}butyrylamino)butyrylamino]ethoxy}ethoxy)acetylamino]ethoxy}ethoxy)acetyl]-[Lys25]-pramlintide (1-37)] (H-KCNTATCATQRLANFLVHSSNNFGK([AEEA-AEEA-γGlu-γGlu-γGlu-γGlu-C18 diacid])ILPPTNVGSNTY-NH2; disulfide 2-7; N-terminus and C-terminus assumed) |
| 0.09 | CC[C@H](C)[C@H](NC(=O)[C@H](CCCCNC(=O)CC[C@H](NC(=O)CCCCCCCCCCCCCCCCC(=O)O)C(=O)O)NC(=O)CNC(=O)[C@H](Cc1ccccc1)NC(=O)[C@H](CC(N)=O)NC(=O)[C@H](CC(N)=O)NC(=O)[C@H](CO)NC(=O)[C@H](CO)NC(=O)[C@H](Cc1c[nH]cn1)NC(=O)[C@@H](NC(=O)[C@H](CC(C)C)NC(=O)[C@H](Cc1ccccc1)NC(=O)[C@H](CC(N)=O)NC(=O)[C@H](C)NC(=O)[C@H](CC(C)C)NC(=O)[C@H](CCCNC(=N)N)NC(=O)[C@H](CCC(N)=O)NC(=O)[C@@H](NC(=O)[C@H](C)NC(=O)[C@@H]1CSSC[C@H](NC(=O)[C@@H](N)CCCCN)C(=O)N[C@@H](CC(N)=O)C(=O)N[C@@H]([C@@H](C)O)C(=O)N[C@@H](C)C(=O)N[C@@H]([C@@H](C)O)C(=O)N1)[C@@H](C)O)C(C)C)C(=O)N[C@@H](CC(C)C)C(=O)N1CCC[C@H]1C(=O)N1CCC[C@H]1C(=O)N[C@H](C(=O)N[C@@H](CC(N)=O)C(=O)N[C@H](C(=O)NCC(=O)N[C@@H](CO)C(=O)N[C@@H](CC(N)=O)C(=O)N[C@H](C(=O)N[C@@H](Cc1ccc(O)cc1)C(N)=O)[C@@H](C)O)C(C)C)[C@@H](C)O [Example 27, N-epsilon25-[(S)-4-carboxy-4-(17-carboxyheptadecanoylamino)butyryl]-[Lys25]-pramlintide (1-37)] (H-KCNTATCATQRLANFLVHSSNNFGK([γGlu-C18 diacid])ILPPTNVGSNTY-NH2; disulfide 2-7; N-terminus assumed) |
| 0.1 | CC[C@H](C)[C@H](NC(=O)[C@@H]1CCCN1C(=O)CNC(=O)[C@H](Cc1ccccc1)NC(=O)[C@H](CC(N)=O)NC(=O)[C@H](CC(N)=O)NC(=O)[C@H](CO)NC(=O)[C@H](CO)NC(=O)[C@H](Cc1c[nH]cn1)NC(=O)[C@@H](NC(=O)[C@H](CC(C)C)NC(=O)[C@H](Cc1ccccc1)NC(=O)[C@H](CC(N)=O)NC(=O)[C@H](C)NC(=O)[C@H](CC(C)C)NC(=O)[C@H](CCCNC(=N)N)NC(=O)[C@H](CCC(N)=O)NC(=O)[C@@H](NC(=O)[C@H](C)NC(=O)[C@@H]1CSSC[C@H](NC(=O)[C@@H](N)CCCCN)C(=O)N[C@@H](CCCCNC(=O)COCCOCCNC(=O)CCCS(=O)(=O)NC(=O)CCCCCCCCCCCCCCCc2nnn[nH]2)C(=O)N[C@@H]([C@@H](C)O)C(=O)N[C@@H](C)C(=O)N[C@@H]([C@@H](C)O)C(=O)N1)[C@@H](C)O)C(C)C)C(=O)N[C@@H](CC(C)C)C(=O)N1CCC[C@H]1C(=O)N1CCC[C@H]1C(=O)N[C@H](C(=O)N[C@@H](CC(N)=O)C(=O)N[C@H](C(=O)NCC(=O)N[C@@H](CO)C(=O)N[C@@H](CC(N)=O)C(=O)N[C@H](C(=O)N[C@@H](Cc1ccc(O)cc1)C(N)=O)[C@@H](C)O)C(C)C)[C@@H](C)O [Example 30, N-epsilon3-[2-(2-{2-[4-(16-1H-tetrazol-5-yl-hexadecanoylsulfamoyl)butyrylamino]ethoxy}ethoxy)acetyl]-[Lys3]pramlintide (1-37)] (H-KCK([AEEA-X1])TATCATQRLANFLVHSSNNFGPILPPTNVGSNTY-NH2; disulfide 2-7; N-terminus and C-terminus assumed) |
